The target of assay [1] is T1, human BChE (Homo sapiens, UniProt P06276).
T1 construct: human plasma BChE (Mechnikov Scientific Research Institute of Vaccines and Serums, St. Petersburg, Russia); purchased Mechnikov Scientific Research Institute of Vaccines and Serums, St. Petersburg, Russia; host or cells: human plasma (natural source)
Description: Inhibition of human plasma BChE, microplate Ellman method. In kind it is biochemical. The conditions noted are these: for Type of Inhibition: human BChE, Lineweaver–Burk plots; for Ki: human plasma BChE (1:30 dilution), BTCh substrate, 37 °C. The method, then: (§1) The biochemical analysis of the inhibitory ability of the drugs against AChE and BChE was performed using a microplate modification of the Ellman method. The following reagents were used: 5,5′-dithio-bis-2-nitrobenzoic acid (DTNB, Sigma-Aldrich, St. Louis, MO, USA), acetylthiocholine (ATCh, Sigma-Aldrich), butyrylthiocholine (BTCh, Sigma-Aldrich), human erythrocyte AChE (Biomed, Auckland, New Zealand), human plasma BChE (Mechnikov Scientific Research Institute of Vaccines and Serums, St. Petersburg, Russia), phosphate-buffered saline (PBS; pH 7.2; Biolot, […]) and distilled water (pH 5.97, Biolot).
(§2) AChE and BChE were dissolved in PBS to obtain solutions of 1 mg/mL. Due to its high activity, human BChE was used at a 1:30 dilution. Solutions of the studied compounds were prepared with serial dilutions; their concentration in the reaction mixture was in a range from 0 to 300 μM. Double-distilled water, ethanol and dimethyl sulfoxide (DMSO, up to 15% of the total solvent volume) were used as solvents. When using DMSO or ethanol, an additional control was performed to assess the effect of the solvent itself. Protein (AChE of BChE) was incubated for 5 min at 37 °C and then the coloring solution was added, which contained a 2 mM freshly prepared DTNB solution and the substrate (ATCh/BTCh) in the concentration range of 200–800 μM. The kinetics were recorded for 15 min at 37 °C at a wavelength of 405 nm. Activity (μM × min^−1) was calculated using the molar extinction coefficient 0.01415 μmol^−1 × cm^−1: (V/ε × l × v) × (ΔE/Δt), where V is the volume of the analyzed mixture (μL); v is the volume of the enzyme solution (μL); ΔE/Δt is the change in extinction in 1 min; l is the thickness of the absorbing layer (cm); and ε is the coefficient of molar extinction of […]. Each measurement was repeated three times.
(§3) The type of inhibition was evaluated using Lineweaver–Burk plots. The dissociation constant of the enzyme-inhibitor complex (Ki), the maximum rate (Vmax) and thermodynamic cooperativity factor α were calculated using the Graphpad Prism 8.0 program (GraphPad Software Inc., San Diego, CA, USA) according to the model “enzymatic kinetics-inhibition—type of inhibition”.

Assay [2] has as its target T2, human AChE (Homo sapiens, UniProt P22303).
T2 construct: human erythrocyte AChE (Biomed, Auckland, New Zealand); purchased Biomed, Auckland, New Zealand; host or cells: human erythrocytes (natural source)
Briefly: biochemical. The conditions noted are these: for Type of Inhibition / thermodynamic cooperativity factor α: human AChE; for Type of Inhibition: Lineweaver–Burk plots; for thermodynamic cooperativity factor α: mixed inhibition model. In kind it is biochemical. As to the method:
as §1, §2, §3

Assay [3] relates to 5-HT4R. The note with it: read-out: EC50 relative to 5-HT4R; cited from earlier work.
Where [4] appears, read: human erythrocyte AChE, ATCh substrate, 37 °C, read-out: Ki.

“Also recorded” adds a separate entry of the source. Read-outs that look alike come from different tables or passages of the source.

T2 sequence (P22303 32-617 isoform P22303-2 limits assumed): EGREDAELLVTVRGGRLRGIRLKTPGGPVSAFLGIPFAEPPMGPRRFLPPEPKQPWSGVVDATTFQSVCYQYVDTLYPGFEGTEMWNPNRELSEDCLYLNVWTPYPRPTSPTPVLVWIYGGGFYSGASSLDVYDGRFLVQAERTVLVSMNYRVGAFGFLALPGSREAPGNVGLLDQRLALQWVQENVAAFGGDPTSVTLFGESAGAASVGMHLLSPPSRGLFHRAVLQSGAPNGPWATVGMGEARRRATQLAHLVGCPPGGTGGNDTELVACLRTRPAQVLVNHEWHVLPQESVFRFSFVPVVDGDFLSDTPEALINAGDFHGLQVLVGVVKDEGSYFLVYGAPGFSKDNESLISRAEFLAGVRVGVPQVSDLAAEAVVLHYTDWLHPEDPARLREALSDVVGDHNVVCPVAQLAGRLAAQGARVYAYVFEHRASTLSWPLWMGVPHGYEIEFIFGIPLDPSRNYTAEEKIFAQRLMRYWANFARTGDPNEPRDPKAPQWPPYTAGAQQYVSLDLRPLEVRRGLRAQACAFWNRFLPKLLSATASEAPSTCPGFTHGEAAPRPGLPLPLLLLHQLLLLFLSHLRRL
T1 sequence (P06276 29-602): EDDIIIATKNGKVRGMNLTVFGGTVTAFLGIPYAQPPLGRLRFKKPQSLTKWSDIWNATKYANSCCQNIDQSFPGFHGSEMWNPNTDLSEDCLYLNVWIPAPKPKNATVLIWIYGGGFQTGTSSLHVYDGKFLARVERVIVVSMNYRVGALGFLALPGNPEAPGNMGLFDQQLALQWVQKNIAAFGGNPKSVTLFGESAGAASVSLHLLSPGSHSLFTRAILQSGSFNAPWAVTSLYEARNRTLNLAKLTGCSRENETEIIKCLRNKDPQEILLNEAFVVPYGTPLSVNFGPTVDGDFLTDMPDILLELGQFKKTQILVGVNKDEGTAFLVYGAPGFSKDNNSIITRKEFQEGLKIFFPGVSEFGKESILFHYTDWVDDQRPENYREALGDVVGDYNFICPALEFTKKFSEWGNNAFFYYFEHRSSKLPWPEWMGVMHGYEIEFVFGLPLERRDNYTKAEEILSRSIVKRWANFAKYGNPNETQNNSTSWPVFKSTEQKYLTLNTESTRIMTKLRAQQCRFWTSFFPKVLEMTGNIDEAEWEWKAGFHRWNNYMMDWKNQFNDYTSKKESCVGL

In the case of `CN(C)CCNC(=O)n1c(=O)n(C2CC2)c2ccccc21` [Compound 28], the “Type of Inhibition” value in assay [1] was “non-competitive”; in assay [2] it was “mixed”. Moreover, the Ki (usually the dissociation constant of the complex between target and ligand, obtained from inhibition or displacement) in assay [1] (read-out: Ki) turned out to be 28.1 µM; in assay [2] (setting [4]) it was 138 µM. For the same compound, the “thermodynamic cooperativity factor α” value in assay [2] was found to be 12.6.
For the compound `CC(C)n1c(=O)n(C(=O)N2CCN(C(c3ccccc3)c3ccc(Cl)cc3)CC2)c2ccccc21` (stereo not drawn) [Compound 24], the “Type of Inhibition” value is recorded as “no inhibition” in assay [1] and “non-competitive” in assay [2]. The Ki result was “no inhibitory effect; also recorded: did not demonstrate inhibitory properties; also recorded: no inhibition” in assay [1] and 0.13 µM in assay [2] (setting [4]).
Take `CC(C)n1c(=O)n(C(=O)NC2CC3CCC(C2)N3C)c2ccccc21` (stereo not drawn) [Compound 15, reference compound]: the entries for the “Type of Inhibition” value in assay [1] and in assay [2] were “competitive” and “mixed”, respectively. Also, the figures for the Ki in assay [1] (read-out: Ki) and in assay [2] (setting [4]) were 9.7 µM and 127 µM, respectively. Besides, in assay [3], the EC50 – broadly, the midpoint of the concentration-response curve – is 0.018 µM. Moreover, in assay [2], the “thermodynamic cooperativity factor α” value worked out at 6.6.
For the compound `CCN(CC)CCNC(=O)n1c(=O)n(C(C)(C)C)c2ccccc21.Cl` [Compound 13, N-[2-(diethylamino)ethyl]-2-oxo-3-(tert-butyl)-2,3-dihydro-1H-benzimidazole-1-carboxamide hydrochloride], the “Type of Inhibition” value is given as “non-competitive” in assay [1] and “strictly competitive” in assay [2]. For the same compound, the Ki came to 1.7 µM in assay [1] (read-out: Ki) and 36.1 µM in assay [2]. The “AChE inhibition less effective than compound 24 (ratio of Ki)” value in assay [2] (compound 13 vs compound 24) is on record as about 300 times.
For the compound `CCN(CC)CCNC(=O)n1c(=O)n(C2CC2)c2ccccc21` [Compound 27], the “Type of Inhibition” value in assay [1] is reported as “competitive”; in assay [2], “mixed”. In addition, the Ki is 16.2 µM in assay [1] (read-out: Ki) and 132 µM in assay [2] (setting [4]). The “thermodynamic cooperativity factor α” value in assay [2] was 10.9.
Take `CCN(CC)CCNC(=O)n1c(=O)n(C(C)C)c2ccccc21` [Compound 22]: the “Type of Inhibition” value in assay [1] is reported as “competitive”; in assay [2], “strictly competitive”. Further, the Ki in assay [1] (read-out: Ki) is 15.2 µM; in assay [2] (setting [4]), 97.1 µM.
In the case of `CC(C)n1c(=O)n(C(=O)NC2CC3CCC(C2)N3C)c2cc(C(F)(F)F)ccc21` (stereo not drawn) [Compound 16], the figures for the “Type of Inhibition” value in assay [1] and in assay [2] were “competitive” and “mixed”, respectively. The figures for the Ki in assay [1] (read-out: Ki) and in assay [2] (setting [4]) were 21.3 µM and 31 µM, respectively. Further, in assay [2], the “thermodynamic cooperativity factor α” value is recorded as 5.1.
With `CCN(CC)CCNC(=O)n1c(=O)n(C(C)C)c2ccc(C(F)(F)F)cc21` [Compound 23], the “Type of Inhibition” value in assay [1] is “non-competitive”; in assay [2] it was “mixed”. Also, the inhibition constant (Ki) in assay [1] (read-out: Ki) is 4.5 µM; in assay [2] (setting [4]) it was 60.5 µM. In addition, the “thermodynamic cooperativity factor α” value in assay [2] is 3.1.

Source of the values: paper PMC10459044, “Anticholinesterase and Serotoninergic Evaluation of Benzimidazole–Carboxamides as Potential Multifunctional Agents for the Treatment of Alzheimer’s Disease” (Pharmaceutics, 2023).
